The supplement of paper PMC10949913

What was measured:
Experiment in all cases: area under concentration-response curve (viability) (AUC (a.u.)); higher = less active
Details in all cases: 48 h
NCI-H295R = test system: NCI-H295R
How it was run: (§1)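 Library compounds were dispensed at 11 concentrations (23 nL each) onto three adrenocortical carcinoma cell lines in 1,536-well plates. Luminescence was recorded after 48 h using CellTiter-Glo, and signals were normalised per plate to vehicle and empty-well controls. Fitted concentration-response curves of inhibitory or non-responding classes only supplied the AC50 and area under the curve.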

CU-ACC2 = test system: CU-ACC2
How it was run: as §1

CU-ACC1 = test system: CU-ACC1
How it was run: as §1

Row | SMILES | area under concentration-response curve (NCI-H295R) | area under concentration-response curve (CU-ACC2) | area under concentration-response curve (CU-ACC1)
1 | O=C(c1cncc(Br)c1)N1CCC(N2CCCC2)CC1 | 528 | 440 | 489
2 | CN(Cc1cnc2nc(N)nc(N)c2n1)c1ccc(C(=O)N[C@@H](CCC(=O)O)C(=O)O)cc1 | 539 | 615 | 508
3 | COC[C@@H](NC(C)=O)C(=O)NCc1ccccc1 | 560 | 619 | 503
4 | N\C1=N\C2=C(N=C[N]2COC(CO)CO)C(=O)N1 | 605 | 645 | 567
5 | Cc1cnc(Nc2cccc(CN3CCOCC3)c2)nc1Nc1cccc([S+](=O)([O-])NC(C)(C)C)c1 | 467 | 508 | 453
6 | C[C@]12CC(=O)[C@H]3[C@@H](CC\C4=C\C(=O)\C=C/[C@]34C)[C@@H]1CC[C@]2(O)C(=O)CO | 580 | 652 | 547
7 | N=C(N)c1ccc2[nH]c(-c3cc(CC(=O)N[C@@H](CC(=O)O)C(=O)O)cc(-c4cc([S+](N)(=O)[O-])ccc4O)c3O)nc2c1 | 562 | 620 | 595
8 | NCC1(CC(=O)O)CCCCC1 | 412 | 403 | 315
9 | CC(Oc1ccc(O)cc1)(P(=O)(O)O)P(=O)(O)O | 458 | 508 | 456
10 | Cc1nc(-c2cccnc2)sc1C(=O)Nc1ccccc1-c1cn2c(CN3CCOCC3)csc2n1 | 504 | 456 | 454
11 | Nc1ncnc2c1ncn2[C@@H]1O[C@H](CO)[C@@H](O)[C@@H]1O | 515 | 582 | 496
12 | COC(=O)N[C@@H](C)CNc1nccc(-c2cn(C(C)C)nc2-c2cc(Cl)cc(N[S+](C)(=O)[O-])c2F)n1 | 539 | 566 | 497
13 | COC(=O)CCC1=C(C)C2=CC3=NC(=CC4=C(C)C(=C([NH]4)C=C\5N=C(C=C1[NH]2)\C(=C5C)CCC(O)=O)C=C)\C6=C\C=C(/[C@@H](C(=O)OC)[C@@]36C)C(=O)OC | 462 | 416 | 438
14 | Cc1c(Cl)cccc1[S+](=O)([O-])Nc1nc(CCN2CCOCC2=O)cs1 | 520 | 583 | 483
15 | c1ccc2[nH]c(-c3cscn3)nc2c1 | 556 | 630 | 557
16 | C[S+](=O)([O-])c1ccc(C(=O)Nc2ccc(Cl)c(-c3ccccn3)c2)c(Cl)c1 | 591 | 674 | 544
17 | CCN[C@H]1C[C@H](C)[S+](=O)([O-])c2sc([S+](N)(=O)[O-])cc21 | 558 | 612 | 514
18 | CC(C)[C@H]1C(=O)N[C@H](CO)Cc2c[nH]c3cccc(c23)N1C | 575 | 539 | 384
19 | Nc1cccc(-c2cc3c(Oc4cccc(O)c4)ncnc3[nH]2)c1 | 530 | 534 | 524
20 | Nc1ccc([S+](N)(=O)[O-])cc1 | 409 | 415 | 417
21 | COc1ccc(CCN2CCN(CCCc3ccccc3)CC2)cc1OC | 562 | 627 | 541
22 | OC[C@H]1OC(O)C[C@@H](O)[C@@H]1O (some centres undefined) | 607 | 694 | 562

Row | SMILES | area under concentration-response curve (NCI-H295R) | area under concentration-response curve (CU-ACC2) | area under concentration-response curve (CU-ACC1)
23 | O=C([O-])Cc1ccccc1Nc1c(Cl)cccc1Cl | 585 | 645 | 536
24 | CN(Cc1ccccc1)C(=O)c1ccc([S+](=O)([O-])Nc2ccccc2)cc1 | 519 | 550 | 491
25 | COc1ccc(Oc2cc(NCCC(F)(F)F)c3ncc(-c4ccc(C(=O)NC5CC5)c(C)c4)n3n2)c(F)c1F | 501 | 459 | 487
26 | COc1ccc([S+](=O)([O-])NCc2ccc(C(=O)NCCc3ccc(Cl)cn3)cc2)cc1 | 614 | 654 | 565
27 | COc1cc(SC)ccc1C(=O)N1CCC(Cc2ccccc2)CC1 | 538 | 501 | 522
28 | COc1cc(C)c(/C=C/C(C)=C/C=C/C(C)=C/C(=O)O)c(C)c1C | 524 | 544 | 484
29 | C[C@@H]1[C@H]\2[C@H](O)[C@H]3[C@H](N(C)C)\C(=C(C(N)=O)/C(=O)[C@@]3(O)\C(=C2C(=O)C4=C(O)C=CC=C14)O)O | 403 | 325 | 406
30 | NC1=NC(=C(C#N)C(=N1)N)N[C@@H](C2CC2)\C3=N\C4=C(C(=CC=C4F)Cl)C(=O)N3C5=CC=CN=C5 | 526 | 570 | 511
31 | COc1nc(-c2ccc3c(c2)OCO3)n(-c2ccc(NC(=O)CSc3ccccc3)cc2)n1 | 573 | 611 | 408
32 | CCOCC(O)COc1ccc(NC(=O)CC[S+](C)C)cc1 (centres undefined) | 411 | 394 | 367
33 | Cc1ccc(Nc2nccc(N(C)c3ccc4c(C)n(C)nc4c3)n2)cc1[S+](N)(=O)[O-] | 570 | 620 | 516
34 | CCOC(=O)/C=C/[C@H](C[C@@H]1CCNC1=O)NC(=O)[C@@H](CC(=O)[C@@H](NC(=O)c1cc(C)on1)C(C)C)Cc1ccc(F)cc1 | 539 | 523 | 530
35 | CC(=O)N[C@H]1[C@H](O[C@@H]2c3ccc(c(Cl)c3)Oc3cc4cc(c3O[C@@H]3O[C@H](CO)[C@@H](O)[C@H](O)[C@H]3NC(=O)CCCCCCCC(C)C)Oc3ccc(cc3Cl)C[C@H]3NC(=O)[C@H](N)c5ccc(O)c(c5)Oc5cc(O)cc(c5)[C@H](NC3=O)C(=O)N[C@H]4C(=O)N[C@H]3C(=O)N[C@@H]2C(=O)N[C@@H](C(=O)O)c2cc(O)cc(O[C@H]4O[C@H](CO)[C@@H](O)[C@H](O)[C@@H]4O)c2-c2cc3ccc2O)O[C@H](CO)[C@@H](O)[C@@H]1O | 551 | 593 | 492
36 | Cc1coc2c1C(=O)C(=O)c1c-2ccc2c1CCCC2(C)C | 456 | 479 | 433
37 | C[C@]\12CC[C@H](O)CC1=C/CC3C2CC[C@@]\4(C)C3C\C=C4[N]5C=NC6=C5C=CC=C6 (some centres undefined) | 548 | 516 | 540
38 | CC(C)n1cc(-c2ccc3c(c2)N(C)CC3)c2c(N[S+](=O)([O-])c3ccn(C)n3)ccnc21 | 568 | 638 | 516
39 | NC(=O)c1cnccn1 | 382 | 301 | 346
40 | CC(C)=CCC[C@](C)(O[C@@H]1O[C@H](CO[C@@H]2O[C@H](CO)[C@@H](O)[C@H](O)[C@H]2O)[C@@H](O)[C@H](O)[C@H]1O)[C@H]1CC[C@]2(C)[C@@H]1[C@H](O)C[C@@H]1[C@@]3(C)CC[C@H](O[C@@H]4O[C@H](CO)[C@@H](O)[C@H](O)[C@H]4O[C@@H]4O[C@H](CO)[C@@H](O)[C@H](O)[C@H]4O)C(C)(C)[C@@H]3CC[C@]12C | 591 | 637 | 533
41 | CNC(=O)Cn1cc(-c2ccc3c(c2)C(F)CC32NC(=O)N(CC(=O)N(Cc3ccc(F)cc3)C(C)C(F)(F)F)C2=O)cn1 (centres undefined) | 512 | 546 | 500
42 | OCCC#Cc1nc(-c2ccc(F)cc2)c(-c2ccncc2)n1CCCc1ccccc1 | 475 | 536 | 513
43 | Nc1nccc(-c2c(-c3ccc(F)cc3)ncn2C2CCN(Cc3ccon3)CC2)n1 | 495 | 578 | 467
